From patent US9718802B2, “Crystal form of dabigatran etexilate mesylate and preparation method and use thereof” (Zhejiang Hisun Pharmaceutical Co., Ltd., priority 2014, dated 2017)
Entries after “also recorded” stand apart in the source; their conditions may differ.

Experiments:
Assay type in all cases: physicochemical
[1] = Test 1 stability data under 25° C. for 6 months (liquid chromatography); conditions: for Major peak: 25° C., in % (unit assumed); for chemical stability compared with crystal form I, crystal form II and the semihydrate crystal form: normal temperature and cold storage conditions
Experimental: (§1) Liquid chromatography test conditions are: chromatographic column is Merck Purospher®STAR RP-18 endcapped 250×4.6 mm, 5 μm; mobile phase A: acetonitrile, mobile phase B: 4 ml phosphoric acid added in 1 L water, the pH is adjusted to 3.5 by triethylamine; detecting wavelength: 310 nm; flow rate: 1 ml/min; sample load: 10 μl; column temperature: 30° C., liquid chromatography conditions are shown in table 4:
(§2) The inventor has tested the chemical stability of the crystal form M and crystal form N under normal temperature, cold storage and freezing conditions and compared the chemical stability with crystal form I, crystal form II and semihydrate crystal form, see tests 1-3. In the tests, crystal form I, crystal form II and semihydrate crystal form are all prepared according to the method disclosed in patent document U.S. Pat. No. 7,932,273B2.

[2] = Test 3 stability data under −20° C. for 6 months (liquid chromatography); conditions: in % (unit assumed)
Experimental: as §1, §2
Test 3 stability data under −20° C. for 6 months (see table 7)

[3] = Test 2 stability data under 5° C. for 6 months (liquid chromatography); conditions: for Major peak: 5° C., in % (unit assumed); for storage stability: cold storage and freezing conditions
Experimental: as §1, §2
Test 2 stability data under 5° C. for 6 months (see table 6)

[4] = Crystal form of samples after 6 months stability tests under different temperature; conditions: 6 months under different temperature
[5] = Test 4 stability of crystal form N in 95% ethanol solution (XRD); conditions: stirred for 3, 4 and 5 hours
Experimental: In the following examples and tests, the powder X-ray diffractometer and the test conditions are: X-ray diffractomer model Rigaku D/max-2200 Cu target; operation method: scan rate 4°/min, scan width 0.01°.
Test 4 the stability in formulation of crystal form N
This indicate that the crystal form N is stable in the 95% ethanol solution, therefore, it has great stability in the related formulation processes.

Structure (SMILES)	Major peak ([1]; 0 month)	Major peak ([1]; 1 month)	Major peak ([1]; 2 months)	Major peak ([1]; 3 months)	Major peak ([1]; 4 months)	Major peak ([1]; 5 months)	Major peak ([1]; 6 months)	Major peak ([2]; 1 month)	Major peak ([2]; 2 months)	Major peak ([2]; 3 months)	Major peak ([2]; 4 months)	Major peak ([2]; 5 months)	Major peak ([2]; 6 months)	Major peak ([3]; 0 month)	Major peak ([3]; 1 month)	Major peak ([3]; 2 months)	Major peak ([3]; 3 months)	Major peak ([3]; 4 months)	Major peak ([3]; 5 months)	Major peak ([3]; 6 months)	further results
CCCCCCOC(=O)/N=C(/N)c1ccc(NCc2nc3cc(C(=O)N(CCC(=O)OCC)c4ccccn4)ccc3n2C)cc1.CS(=O)(=O)O [Crystal form I, 3-[(2-{[4-(hexaoxycarbonylamino-imino-methyl)-phenylamino]-methyl}-1-methyl-1H-benzimidazole-5-carbonyl)-pyridine-2-yl-amino-]-ethyl propionate-mesylate]	99.690	99.604	99.574	99.468	99.308	99.309	99.220	99.693	99.694	99.690	99.692	99.691	99.692	99.676	99.655	99.651	99.652	99.651	99.649	99.643	–
CCCCCCOC(=O)/N=C(/N)c1ccc(NCc2nc3cc(C(=O)N(CCC(=O)OCC)c4ccccn4)ccc3n2C)cc1.CS(=O)(=O)O [Crystal form II, 3-[(2-{[4-(hexaoxycarbonylamino-imino-methyl)-phenylamino]-methyl}-1-methyl-1H-benzimidazole-5-carbonyl)-pyridine-2-yl-amino-]-ethyl propionate-mesylate]	99.646	99.493	99.408	99.290	99.069	99.029	98.911	99.630	99.633	99.634	99.630	99.632	99.632	99.631	99.630	99.643	99.640	99.641	99.598	99.592	–
CCCCCCOC(=O)/N=C(/N)c1ccc(NCc2nc3cc(C(=O)N(CCC(=O)OCC)c4ccccn4)ccc3n2C)cc1.CS(=O)(=O)O [Crystal form M, 3-[(2-{[4-(hexaoxycarbonylamino-imino-methyl)-phenylamino]-methyl}-1-methyl-1H-benzimidazole-5-carbonyl)-pyridine-2-yl-amino-]-ethyl propionate-mesylate]	99.711	99.632	99.614	99.595	99.582	99.574	99.541	99.722	99.728	99.737	99.737	99.739	99.737	99.654	99.650	99.648	99.651	99.649	99.649	99.648	chemical stability compared with crystal form I, crystal form II and the semihydrate crystal form [1]: better chemical stability; crystal form of samples after stability tests [4]: not changed; storage stability [3]: can be stored stable for a long time
CCCCCCOC(=O)/N=C(/N)c1ccc(NCc2nc3cc(C(=O)N(CCC(=O)OCC)c4ccccn4)ccc3n2C)cc1.CS(=O)(=O)O [Crystal form N, 3-[(2-{[4-(hexaoxycarbonylamino-imino-methyl)-phenylamino]-methyl}-1-methyl-1H-benzimidazole-5-carbonyl)-pyridine-2-yl-amino-]-ethyl propionate-mesylate]	99.701	99.631	99.618	99.601	99.580	99.572	99.536	99.723	99.726	99.734	99.733	99.734	99.733	99.660	99.659	99.655	99.652	99.650	99.650	99.649	chemical stability compared with crystal form I, crystal form II and the semihydrate crystal form [1]: better chemical stability; crystal form of samples after stability tests [4]: not changed; stability in 95% ethanol solution (X-Ray powder diffractograms) [5]: not changed within 5 hours; also recorded: very good stability; storage stability [3]: can be stored stable for a long time
CCCCCCOC(=O)/N=C(/N)c1ccc(NCc2nc3cc(C(=O)N(CCC(=O)OCC)c4ccccn4)ccc3n2C)cc1.CS(=O)(=O)O [Semihydrate crystal form, 3-[(2-{[4-(hexaoxycarbonylamino-imino-methyl)-phenylamino]-methyl}-1-methyl-1H-benzimidazole-5-carbonyl)-pyridine-2-yl-amino-]-ethyl propionate-mesylate]	99.847	99.707	99.631	99.587	99.447	99.334	99.254	99.834	99.833	99.836	99.839	99.840	99.836	99.828	99.827	99.830	99.826	99.831	99.827	99.832	–
